Data from paper PMC4145669, “The structure, function and properties of sirohaem decarboxylase - an enzyme with structural homology to a transcription factor family that is part of the alternative haem biosynthesis pathway” (Molecular Microbiology, 2014).
Read-outs that look alike come from different tables or passages of the source.

Molecular target: T1, D. desulfuricans AhbA/B (sirohaem decarboxylase) (Desulfovibrio desulfuricans, UniProt B8J364+B8J3A4)
T1 construct: gene Ddes_0286; full-length AhbA (untagged) and AhbB with N-terminal hexa-His tag (kept), coexpressed in E. coli; heterodimer, 40 kDa by gel filtration
T1 sequence (B8J364 1-173): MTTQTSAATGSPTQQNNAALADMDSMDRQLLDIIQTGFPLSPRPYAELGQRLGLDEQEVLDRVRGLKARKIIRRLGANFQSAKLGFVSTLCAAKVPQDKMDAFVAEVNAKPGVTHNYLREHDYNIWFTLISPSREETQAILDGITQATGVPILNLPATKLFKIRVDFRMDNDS
T1 sequence (B8J3A4 1-159): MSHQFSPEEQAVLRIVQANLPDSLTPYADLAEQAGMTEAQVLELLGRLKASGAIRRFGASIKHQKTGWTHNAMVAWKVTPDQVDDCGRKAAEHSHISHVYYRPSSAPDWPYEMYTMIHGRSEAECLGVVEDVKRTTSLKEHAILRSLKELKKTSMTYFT
Test: anaerobic stopped assay, MS quantification, global fit
Type: biochemical
Conditions: competitive model of both substrates and product, single active site, 23 μM sirohaem, 2.3 μM enzyme

Substance | Km (read-out: Km1) | Km (intermediate formed in situ from sirohaem, read-out: Km2)
sirohaem [SH] | 11.7 ± 3.36 µM | 
monodecarboxysirohaem [MDSH] |  | 9.94 ± 1.19 µM
